These are literature values, as cited in US11116842B2, “Methylene blue complex for treating skin disease and its use thereof” (D. R. NANO Co., Ltd., priority 2017, dated 2021).

Structures are written as SMILES.

For the series, the system named is skin disease such as acne. The following applies: for side effect in a long-term application: background art.

In the case of `COC(=O)CCC(=O)CN` [MAL, Methyl-aminolevulinate], the “side effect in a long-term application” value is on record as “xeroderma”.

On to `NCC(=O)CCC(=O)O` [ALA, 5-aminolevulinic acid], for which the “side effect in a long-term application” value was “xeroderma”. In addition, under “prior-art photosensitizers”, the “Light protection time after operation” value is reported as “T > 30 hr” and the Treatment effect result is “strong”.
